# Source: US20190062749A1, “SIRNA, PHARMACEUTICAL COMPOSITION AND CONJUGATE WHICH CONTAIN SIRNA, AND USES THEREOF” (priority 2015, published 2019)
# Where two headings read alike, the source gives them in different places. Oligonucleotides are written 5' to 3', each unit as a sugar letter and its base; * is a phosphorothioate linkage, no mark a phosphodiester; rarer units and linkages stand in square brackets, end groups in braces. Plain capitals give the bases only. d = 2'-deoxy (DNA); m = 2'-O-methyl; r = 2'-OH (RNA); f = 2'-fluoro
# Experiment: Stability of siRNAs in human plasma in vitro (gel, ratio of the longest fragments RL)
# Format: in vitro ADME
# Experimental: The siRNAs (20 μM, 10 μl) obtained in Preparation Example 1 were incubated with 50% human plasma (HP) at 37° C. in vitro for a certain time and samples were taken therefrom. Specifically, 10 μl samples were taken at 0, 2, 4, 6, 8, 24 and 48 hours respectively and immediately snap frozen in liquid nitrogen, followed by cryopreservation at −80° C. for future use. 20 wt % non-denaturing polyacrylamide gel was formulated, and 10 μl 5-fold diluted above samples (dilution solution: 1×PBS buffer at pH 7.4) and 4 μl loading buffer (20 mM EDTA, 36 wt % glycerol, 0.06 wt % bromophenol blue) were mixed and then loaded into the gel to perform electrophoresis for about 60 minutes under 80 mA constant current. After electrophoresis finished, the gel was stained with 1× Sybr Gold dye (Invitrogen, Cat. 11494) for 15 minutes followed by imaging.
# The ratio of the longest fragments remained after incubating the test siRNAs and control siRNAs with human plasma to the longest fragments of the siRNAs without the treatment of human plasma (i.e., the markers shown in FIG. 3) (also referred to as ratio of the longest fragments, RL) is calculated by reading the grayscale values quantitatively.
Substance,"RL (ratio of the longest fragments) 0 h (50% human plasma, 37° C., 0 h)","RL (ratio of the longest fragments) 2 h (50% human plasma, 37° C., 2 h)","RL (ratio of the longest fragments) 4 h (50% human plasma, 37° C., 4 h)","RL (ratio of the longest fragments) 6 h (50% human plasma, 37° C., 6 h)","RL (ratio of the longest fragments) 8 h (50% human plasma, 37° C., 8 h)","RL (ratio of the longest fragments) 24 h (50% human plasma, 37° C., 24 h)","RL (ratio of the longest fragments) 48 h (50% human plasma, 37° C., 48 h)",RL (ratio of the longest fragments) 0 h,RL (ratio of the longest fragments) 2 h,RL (ratio of the longest fragments) 4 h,RL (ratio of the longest fragments) 6 h,RL (ratio of the longest fragments) 8 h,RL (ratio of the longest fragments) 24 h,RL (ratio of the longest fragments) 48 h
"1d: sense CmCmUmUmGAGGCmAUmACmUmUmCmAAAdTdT, antisense UUmUfGAAGUfAUfGCCUfCAAGGdTdT (sense mCmCmUmUrGrArGrGmCrAmUrAmCmUmUmCrArArAdTdT; antisense rUmUfUrGrArArGfUrAfUrGrCrCfUrCrArArGrGdTdT)",100.0%,90.0%,97.2%,93.3%,87.5%,55.7%,65.1%,–,–,–,–,–,–,–
"2d: sense CmCmUmUmGAGGCmAUmACmUmUmCmAAAdTdT, antisense UfUUfGAAGUfAUfGCCUfCAAGGdTdT (sense mCmCmUmUrGrArGrGmCrAmUrAmCmUmUmCrArArAdTdT; antisense fUrUfUrGrArArGfUrAfUrGrCrCfUrCrArArGrGdTdT)",100.0%,97.6%,88.2%,82.2%,84.5%,82.1%,78.4%,–,–,–,–,–,–,–
"3d: sense CmCmUmUmGAGGCmAUmACmUmUmCmAAAdTdT, antisense UfUmUGAAGUfAUfGCCUfCAAGGdTdT (sense mCmCmUmUrGrArGrGmCrAmUrAmCmUmUmCrArArAdTdT; antisense fUmUrUrGrArArGfUrAfUrGrCrCfUrCrArArGrGdTdT)",100.0%,96.6%,99.6%,93.3%,87.1%,75.0%,41.6%,–,–,–,–,–,–,–
"8d: sense CmCmUmUmGAGGCmAUmACmUmUmCmAAAdTdT, antisense UfUmUfGAAGUAUfGCCUfCAAGGdTdT (sense mCmCmUmUrGrArGrGmCrAmUrAmCmUmUmCrArArAdTdT; antisense fUmUfUrGrArArGrUrAfUrGrCrCfUrCrArArGrGdTdT)",100.0%,78.2%,72.7%,59.7%,48.3%,34.0%,25.9%,–,–,–,–,–,–,–
"14d: sense CmCmUmUmGAGGCmAUmACmUmUmCmAAAdTdT, antisense UfUmUfGAAGUfAUfGCCUCAAGGdTdT (sense mCmCmUmUrGrArGrGmCrAmUrAmCmUmUmCrArArAdTdT; antisense fUmUfUrGrArArGfUrAfUrGrCrCrUrCrArArGrGdTdT)",100.0%,94.6%,90.0%,85.6%,86.0%,78.0%,84.6%,–,–,–,–,–,–,–
"NC-bas: negative control siRNA; sense UmUmCmUmCmCmGAACmGUmGUmCmACmGUmdTdT, antisense ACmGUfGACfACfGUfUfCfGGAGAAdTdT (sense UUCUCCGAACGUGUCACGUTT; antisense ACGUGACACGUUCGGAGAATT; chemistry not fully specified) [reference compound]",–,–,–,–,–,–,–,100.0%,95.1%,89.8%,86.8%,85.3%,91.1%,90.8%
